Here are results for 18 compounds from US3943154A, “Acylamides of beta-cyano-ethenesulfonyl substituted aminoarenes” (Sanitized Incorporated, priority 1973, dated 1976).

The structures appear in SMILES notation. Values after ≈ are worked out from the molar mass of the structure shown. Read-outs that look alike come from different tables or passages of the source.

Holding throughout (format): cell-based
In experiment [1] the test system is Staphylococcus aureus ATCC 6538 DR. Description: button assay, antibacterial activity. Particulars: for MIC: Staphylococcus aureus, ATCC6538, 24 h, read-out: Antibacterial Activity S.aureus, minimum inhibitory concentration. Here is the method: (§1) In the test program, the minimum inhibitory concentrations of the respective test compounds against various Gram positive and Gram negative bacteria were determined, employing the "button assay" method. The test organisms utilized were standard cultures of Staphylococcus aureus ATCC 6538 DR, a penicillin resistant Gram positive bacterium; Bacillus subtilis ATCC 9525, a spore-forming Gram positive bacillus; and Salmonella typhosa ATCC 6539, a Gram negative bacterium.
(§2) In the tests the respective compounds were dissolved in a suitable solvent, usually acetone or dimethylsulfoxide, to give solutions with known concentrations of active material. The highest concentration was ordinarily 1000 ppm (parts per million) [0.1%], and dilutions were made in suitable steps down to 1 ppm. Penicillin test buttons of filter paper having a diameter of 13 mm (socalled "Peniassay" buttons) were added to each solution within a test tube and left submerged for five minutes. They were then removed and left to dry on paper towels under sterile conditions. A laminar flow sterile cabinet equipped with ultraviolet lamps operating under positive air pressure was utilized for this purpose.
(§3) An 18-24 hour old nutrient broth culture (standard 1.5% nutrient agar) prepared in conventional manner from a slant and having passed through at least three consecutive daily transfers was used for inoculation. Melted and cooled sterile agar (45° C) was inoculated with the respective broth cultures by addition of 20 ml broth per liter of agar. The agar was then dispensed into Petri dishes (20 ml per plate) under sterile conditions and allowed to harden.
(§4) The test buttons were placed on the surface of the hardened agar and the plates incubated for 24 hours at 37° C. Where, on inspection, a clear zone of inhibition appeared around the button, inhibition of growth was presumed. Where growth touched the button there was no inhibition. For each of the test compounds, the lowest concentration showing a clear zone is reported as the inhibitory concentration in the following table. […]

For experiment [2], the system named is Aspergillus niger ATCC 6257. Description: agar incorporation test, antifungal activity. To be noted: lowest concentration showing no growth or sporulation, four days at 28° C; for MIC: Aspergillus niger, ATCC6257, 96 h, read-out: Antifungal Activity A. niger, minimum inhibitory concentration. The procedure: The anti-fungal activity of the test compounds was determined employing the "agar incorporation" technique, utilizing spores from Aspergillus niger ATCC 6257 as a representative organism. Test solutions were prepared as described above in acetone or dimethylsulfoxide. A source of carbon agar such as Mycophil Agar was used. The agar was melted and cooled and placed in a constant temperature water bath at 45° C + 3° C. About 13-14 ml of the agar was then poured into a sterile Petri dish, the required amount of test solution to give the desired concentration immediately added thereto, and the dish rotated and swirled by hand to obtain a uniform mixture before the agar hardened.
The hardened plates were inoculated with the test organism by fishing spores from a 7-14 day old slant with the inocculating needle and spotting the spores on the plates, usually in several places. The inoculated plates were incubated for four days in an incubator maintained at 28° C +2° C and with a relative humidity of 95%+.
The lowest concentration of each test compound showing no growth or sporulation of the test organism was taken as the minimum inhibitory concentration and is reported in the following tabulation.
(§5) The button assay and agar incorporation tests were also utilized to determine the corresponding inhibitory concentrations of various control materials, viz., the following well known commercial antimicrobials and fungicides: hexachlorophene, tribromosalicylanilide, trichlorocarbanilide,Captan (N-(trichloromethylthio)4cyclohexene-1,2-dicarboximide) and Zineb (zinc ethylenebis[dithiocarbamate]). The minimum inhibitory concentration of each of the various control materials against the respective organisms is indicated in Table IV below: […]

Experiment [3] concerns Bacillus subtilis ATCC 9525. Description: button assay, antibacterial activity. To be noted: 24 hours at 37° C; for MIC: Bacillus subtilis, ATCC9525, lowest concentration showing a clear zone of inhibition, read-out: Antibacterial Activity B.subtilis, minimum inhibitory concentration. The procedure:
as §1, §2, §3
The test buttons were placed on the surface of the hardened agar and the plates incubated for 24 hours at 37° C. Where, on inspection, a clear zone of inhibition appeared around the button, inhibition of growth was presumed. Where growth touched the button there was no inhibition. For each of the test compounds, the lowest concentration showing a clear zone is reported as the inhibitory concentration in the following table.
as §5

Experiment [4] concerns Salmonella typhosa ATCC 6539. Description: button assay, antibacterial activity. To be noted: for MIC: Salmonella enterica, read-out: Antibacterial Activity S.typhosa, minimum inhibitory concentration. The procedure: as §1
The highest concentration was ordinarily 1000 ppm (parts per million) [0.1%], and dilutions were made in suitable steps down to 1 ppm. Penicillin test buttons of filter paper having a diameter of 13 mm (socalled "Peniassay" buttons) were added to each solution within a test tube and left submerged for five minutes. They were then removed and left to dry on paper towels under sterile conditions. A laminar flow sterile cabinet equipped with ultraviolet lamps operating under positive air pressure was utilized for this purpose.
as §3, §4

The mark [5] stands for this setting: button assay, lowest concentration showing a clear zone of inhibition, 24 hours at 37° C.

For `N#CC=CS(=O)(=O)c1ccc(NS(=O)(=O)c2ccc(Cl)cc2)cc1` [Example 20, 3-[4-(4-chlorobenzenesulfonamido)benzenesulfonyl]acrylonitrile], the MIC in experiment [1] is 20 µg/mL (≈ 52.2 µM); in experiment [2], greater than 1000 µg/mL; in experiment [3], 5 µg/mL (≈ 13.1 µM); in experiment [4] (24 h) it was 10 µg/mL (≈ 26.1 µM).
Regarding `N#CC=CS(=O)(=O)c1ccc(NS(=O)(=O)c2ccc(Cl)cc2[N+](=O)[O-])cc1` [Example 23.3, 3-[4-(4-chloro-2-nitrobenzenesulfonamido)benzenesulfonyl]acrylonitrile], the MIC in experiment [1] turned out to be 10 µg/mL (≈ 23.4 µM); in experiment [2], 100 µg/mL (≈ 234 µM); in experiment [3], 10 µg/mL (≈ 23.4 µM); in experiment [4] (24 h), 20 µg/mL (≈ 46.7 µM).
With `S=C([S-])NCCNC(=S)[S-].[Zn+2]` [Zineb, zinc ethylenebis[dithiocarbamate], reference compound], the MIC in experiment [1] is 300 µg/mL; in experiment [2], greater than 1000 µg/mL; in experiment [3], 300 µg/mL; in experiment [4] (setting [5]), greater than 10000 µg/mL.
As for `N#CC=CS(=O)(=O)c1ccc(NS(=O)(=O)C=Cc2ccccc2)cc1` [Example 10, 3-[4-(2-phenylethenesulfonamido)benzenesulfonyl]acrylonitrile], the MIC was 5 µg/mL (≈ 13.4 µM) in experiment [1], greater than 1000 µg/mL in experiment [2], 5 µg/mL (≈ 13.4 µM) in experiment [3] and 5 µg/mL (≈ 13.4 µM) in experiment [4] (24 h).
As to `CCCCCCCCCCCCc1ccc(S(=O)(=O)Nc2ccc(S(=O)(=O)C=CC#N)cc2)cc1` [Example 17], the MIC in experiment [1] came to 5 µg/mL (≈ 9.68 µM); in experiment [2], 300 µg/mL (≈ 581 µM); in experiment [3], 10 µg/mL (≈ 19.4 µM); in experiment [4] (24 h) it was 10 µg/mL (≈ 19.4 µM).
Turning to `N#CC=CS(=O)(=O)c1ccc(N=S=O)cc1` [Example 44, 3-(4-sulfinylimidobenzenesulfonyl)acrylonitrile], the MIC in experiment [1] turned out to be 20 µg/mL (≈ 78.6 µM); in experiment [2], 300 µg/mL (≈ 1180 µM); in experiment [3] it was 10 µg/mL (≈ 39.3 µM); in experiment [4] (24 h), 10 µg/mL (≈ 39.3 µM).
`CCCCCCCCCCCCCCCCS(=O)(=O)Nc1ccc(S(=O)(=O)C=CC#N)cc1` [Example 4, 3-([…])ACRYLONITRILE]: the MIC in experiment [1] was determined as 20 µg/mL (≈ 40.3 µM); in experiment [2], 500 µg/mL (≈ 1010 µM); in experiment [3] it was 20 µg/mL (≈ 40.3 µM); in experiment [4] (24 h) it was 50 µg/mL (≈ 101 µM).
In the case of `N#CC=CS(=O)(=O)c1ccc(NSC(Cl)(Cl)Cl)cc1` [Example 42, 3-(4-trichlorosulfenamidobenzenesulfonyl)acrylonitrile], the MIC in experiment [1] stood at 20 µg/mL (≈ 55.9 µM); in experiment [2], 1000 µg/mL (≈ 2800 µM); in experiment [3], 20 µg/mL (≈ 55.9 µM); in experiment [4] (24 h), 20 µg/mL (≈ 55.9 µM).
Consider `N#CC=CS(=O)(=O)c1ccc(NS(=O)(=O)c2cccc(C(=O)O)c2)cc1` [Example 26, 3-[4-(3-carboxybenzenesulfonamido)-benzenesulfonyl]acrylonitrile], for which the MIC in experiment [1] is 10 µg/mL (≈ 25.5 µM); in experiment [2], greater than 1000 µg/mL; in experiment [3], 10 µg/mL (≈ 25.5 µM); in experiment [4] (24 h), 10 µg/mL (≈ 25.5 µM).
With `Cc1ccc(S(=O)(=O)Nc2ccc(S(=O)(=O)C=CC#N)cc2)cc1` [Example 13, 3-[4-(4-methylbenzenesulfonamido)benzenesulfonyl]acrylonitrile], the MIC in experiment [1] is 5 µg/mL (≈ 13.8 µM); in experiment [2] it was greater than 1000 µg/mL; in experiment [3], 5 µg/mL (≈ 13.8 µM); in experiment [4] (24 h) it was 5 µg/mL (≈ 13.8 µM).
For the compound `N#CC=CS(=O)(=O)c1ccc(NS(=O)(=O)c2ccc(C3=CC3(Cl)Cl)cc2)cc1` [Example 32, 3-[4-(4-dichlorocarbostyrenesulfonamido)benzenesulfonyl]acrylonitrile], the MIC in experiment [1] came out at 5 µg/mL (≈ 11 µM); in experiment [2], 1000 µg/mL (≈ 2200 µM); in experiment [3], 5 µg/mL (≈ 11 µM); in experiment [4] (24 h) it was 5 µg/mL (≈ 11 µM).
As to `N#CC=CS(=O)(=O)c1ccc(NP(=O)(OCC(Br)CBr)OCC(Br)CBr)cc1` (stereo not drawn) [Example 56, 0,0-bis(2,3-dibromopropyl)-N-4-(2-cyanoethenesulfonyl)phenyl phosphoramide], the MIC in experiment [1] came to 10 µg/mL (≈ 14.5 µM); in experiment [2], 100 µg/mL (≈ 145 µM); in experiment [3], 10 µg/mL (≈ 14.5 µM); in experiment [4] (setting [5]) it was 10 µg/mL (≈ 14.5 µM).
For `N#CC=CS(=O)(=O)c1ccc(NP(=O)(Nc2ccc(S(=O)(=O)C=CC#N)cc2)c2ccccc2)cc1` [Example 58, phenyl-di-[4-(2-cyanoethenesulfonyl)anilido]phosphine oxide], the MIC in experiment [1] was 20 µg/mL (≈ 37.1 µM); in experiment [2] it was 100 µg/mL (≈ 186 µM); in experiment [3], 10 µg/mL (≈ 18.6 µM); in experiment [4] (24 h) it was 10 µg/mL (≈ 18.6 µM).
As to `CN(C)P(=O)(Nc1ccc(S(=O)(=O)C=CC#N)cc1)N(C)C` [Example 51, bis-dimethylamido-4-(2-cyanoethenesulfonyl)anilidophosphine oxide], the MIC stood at 20 µg/mL (≈ 58.4 µM) in experiment [1], 100 µg/mL (≈ 292 µM) in experiment [2], 20 µg/mL (≈ 58.4 µM) in experiment [3] and 10 µg/mL (≈ 29.2 µM) in experiment [4] (24 h).
In the case of `CC(=O)Nc1nnc(S(=O)(=O)Nc2ccc(S(=O)(=O)C=CC#N)cc2)s1` [Example 38, 3-[4-(2-acetamido-1,3,4-thiadiazole-5-sulfonamido)benzenesulfonyl]acrylonitrile], the MIC is 500 µg/mL (≈ 1210 µM) in experiment [1], 1000 µg/mL (≈ 2420 µM) in experiment [2], 50 µg/mL (≈ 121 µM) in experiment [3] and 100 µg/mL (≈ 242 µM) in experiment [4] (24 h).
In the same order, the values of `N#CC=CS(=O)(=O)c1ccc(NS(=O)(=O)c2ccccc2)cc1` [Example 11, 3-(4-benzene-sulfonamidobenzenesulfonyl)acrylonitrile] are 20 µg/mL (≈ 57.4 µM), greater than 1000 µg/mL, 50 µg/mL (≈ 144 µM) and 50 µg/mL (≈ 144 µM).
For `O=C(Nc1ccc(Br)cc1)c1cc(Br)cc(Br)c1O` [tribromosalicylanilide, reference compound], the “Antibacterial Activity S.aureus, minimum inhibitory concentration” value in experiment [1] (setting [5]) is reported as 100 ppm. Further, the “Antifungal Activity A. niger, minimum inhibitory concentration” value in experiment [2] is > 1,000 ppm. Also, the “Antibacterial Activity B.subtilis, minimum inhibitory concentration” value in experiment [3] (lowest concentration showing a clear zone of inhibition) stood at 100 ppm. The “Antibacterial Activity S.typhosa, minimum inhibitory concentration” value in experiment [4] (setting [5]) is reported as 50 ppm.
On to `N#CC=CS(=O)(=O)c1ccc(NS(=O)(=O)c2ccccc2[N+](=O)[O-])cc1` [Example 22.3, 3-[4-(2-nitrobenzenesulfonamido)benzenesulfonyl]acrylonitrile], for which the MIC is 10 µg/mL (≈ 25.4 µM) in experiment [1], greater than 1000 µg/mL in experiment [2], roughly 50 µg/mL (≈ 127 µM) in experiment [3] and 100 µg/mL (≈ 254 µM) in experiment [4] (24 h).
